Source: article PMC10460880, “Cathepsin K‐Activated Probe for Fluoro‐Photoacoustic Imaging of Early Osteolytic Metastasis” (Advanced Science, 2023)

What was measured:
[1] = target: T1, cathepsin K (CTSK) (Homo sapiens, UniProt P43235); assay: In vitro CTSK activation of probes (UV-vis, fluorescence, PA); format: biochemical
T1 sequence (P43235 115-329): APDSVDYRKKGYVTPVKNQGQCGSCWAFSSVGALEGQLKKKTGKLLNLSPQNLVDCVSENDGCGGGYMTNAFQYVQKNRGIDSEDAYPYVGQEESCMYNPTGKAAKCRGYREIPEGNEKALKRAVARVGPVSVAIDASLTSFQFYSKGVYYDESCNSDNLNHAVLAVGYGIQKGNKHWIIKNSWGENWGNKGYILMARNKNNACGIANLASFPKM
Protocol: radiography (DR), and fluorescence imaging were carried out by using an IVIS Spectrum imaging system (PerkinElmer). Photoacoustic (PA) imaging was obtained on a multispectral optoacoustic tomography (MSOT) scanner (iThera Medical). Computed tomography (CT) imaging was recorded on single-photon emission computed tomography imaging system (Olympus). Magnetic resonance (MR) imaging was recorded on a preclinical magnetic resonance solution system (MR solutions).
In vitro analysis of cathepsin K (CTSK) activation, selectivity, and sensitivity studies.
Probe CTSK-APPA, D-CTSK-APPA, or CTSK-APP (10 μM) was incubated with CTSK in MES buffer (50 mM, pH 6.0) containing 0.1% DMSO, 2 mM ethylene diamine tetraacetic acid (EDTA), 4 mM dithiothreitol (DTT) and 0.15% chondroitin sulfate (CS) at 37 °C for 1 h. After incubation at the indicated time, UV-Vis spectra, fluorescence spectra, fluorescence images, and PA images of the solutions were recorded. Probe CyP (10 μM) incubated with CTSK (200 ng/mL) for 1 h was further analyzed by HPLC. For selectivity study, CTSK-APPA (10 μM) in a 96-well plate was incubated with CTSK (100 ng/mL), CTSB (100 ng/mL), FAP-α (9×10-4 U/mL), Caspase-3 (100 ng/mL), APN (100 ng/mL), GGT (0.1 U/mL), ALP (0.1 U/mL), ACE (1×10-3 U/mL), and trypsin (10 U/L) at […] for 1 h. […] The limit of detection was determined from emission intensities according to the equation: 3δ/k, where δ represents the standard deviation of blank, and k represents the slope of the fitting plot of emission intensities. Fluorescence images were captured by using the IVIS Spectrum imaging system with excitation at 660 ± 10 nm and emission at 710 ± 10 nm. […]
Kinetic assay. […] Fluorescence intensities of solution were measured for quantification analyses by a microplate reader (BioTek, Synergy 2) with excitation at 690 nm and emission at 720 nm. The kinetic parameters were calculated according to the Michaelis-Menten equation shown below: V = Vmax×[S]/(Km + [S]), where V is initial velocity, and [S] is substrate concentration. […]

[2] = test system: CTSK-overexpressing OCs on calf bone slice; assay: In vitro bone resorption imaging assay; format: cell-based, C57BL/6J mice; conditions: probe 5 μM, 37 °C, 2 h; Ex 660 nm, Em 710 nm; n = 3
Protocol: PS. RAW 264.7 cells and BMMs were maintained in an atmosphere of 5% CO2 and 95% humidified air at 37 °C. The medium was changed every day.
Cell cytotoxicity assay. MDA-MB-231/Luc and RAW 264.7 cells were seeded in 96-well plates (5×10^3 cells per well) for 24 h and then incubated with CTSK-APPA or CTSK-APP (5, 10, 20, 50 μM) or saline for 24 h. The medium was removed and cells were incubated with CCK-8 (0.5 mg/mL) for another 1 h. The absorbance of the mixture at 450 nm was measured by using a microplate reader. Cell viability was expressed by the ratio of the absorbance of the cells incubated with the probes to that of the cells incubated with culture medium only.
In vitro osteoclast differentiation. Bone marrow-derived macrophages were isolated from the femurs and tibias of 4-week-old C57BL/6J mice and cultured in a complete medium containing M-CSF (30 ng/mL) for 4 days. BMMs were harvested to the 24-well plates (1×10^4 per well) and cultured in the complete medium containing M-CSF (30 ng/mL) and RANKL (100 ng/mL) for another 4 days. The osteoclasts were fixed and stained by using acid phosphatase and a leukocyte kit according to the manufacturer’s procedures.
In vitro bone resorption imaging assay. […]
Fluorescence images were captured by using the IVIS Spectrum imaging system with excitation […]

[3] = Histology (H&E) of organs after injection; format: in vivo, mice; conditions: 24 h post intravenous administration

- incubation time until absorption at 690 nm and fluorescence at 720 nm reach plateau ([1]; incubation with CTSK): ≈ 60 min
- fluorescence on/off ratio at 720 nm ([1]; probe 10 μM + CTSK, MES buffer 50 mM pH 6.0, 0.1% DMSO, 37 °C, 1 h, Ex 690 nm, n = 3): ~20.9
- enhancement of photoacoustic signal ([1]; probe 10 μM + CTSK, MES buffer pH 6.0, 37 °C, 1 h, irradiated at 700 nm, n = 3): 5.2 fold
Substance: Cbz‐Leu‐Arg‐OH [CTSK-APPA]
- NIR fluorescence of bone-resorption slice vs normal bone slices [2]: stronger NIR fluorescence signal
- histological changes (H&E) after injection [3]: no histological changes
